# Reference: patent US9512087B2, “Hybrid molecules containing pharmacophores of fluconazole as antifungal agents and their preparation” (Council for Scientific & Industrial Research, priority 2011, dated 2016)
# How the values were obtained:
# Assay in all cases: Antifungal MIC, broth dilution
# C. glabrata ATCC 90030 = assay type: cell-based; settings: end point 48 hours; for MIC50: Nakaseomyces glabratus, ATCC90030, RPMI 1640 with MOPS, read-out: Cg01 MIC50
# C. krusei ATCC 6258 = assay type: cell-based; settings: end point 48 hours; for MIC50: Pichia kudriavzevii, ATCC6258, RPMI 1640 with MOPS, read-out: Ck01 MIC50
# C. albicans ATCC 24433 = assay type: cell-based, Candida albicans; settings: end point 48 hours; for MIC80 / MIC50: Candida albicans, ATCC24433, RPMI 1640 with MOPS; for MIC80: read-out: Ca01 A: MIC80; for MIC50: read-out: Ca01 B: MIC50
# Experimental: (§1) The compounds of Formula 1 were tested for antifungal activity against Candida albicans, Aspergillus niger and Fusarium proliferatum. In vitro evaluation of antifungal activity was performed by determining the minimum inhibitory concentration (MIC) following standard methods (CLSI: Reference method for broth dilution antifungal susceptibility testing of yeasts; Approved standard, second edition M27-A2, 2002; CLSI: Reference method for broth dilution antifungal susceptibility testing of filamentous fungi; Approved standard M38-A, 2002). Anti-fungal susceptibility testing of these anti-fungal compounds was done by broth dilution method using RPMI 1640 medium with MOPS buffer. Known anti-fungal agents like fluconazole and amphotericin-B were used as positive control. End points were determined after 48 hours visually and by using spectrophotometer wherever necessary. Different dilutions were tried and various sets of experiments performed. The activity parameters are enumerated in Table 5.
# A. niger ATCC 16404 = assay type: cell-based, Aspergillus niger; settings: end point 48 hours; for MIC50: Aspergillus niger, ATCC16404, RPMI 1640 with MOPS, read-out: An01 MIC50
# Experimental: as §1
# C. neoformans ATCC 34664 = assay type: cell-based; settings: end point 48 hours; for MIC50: Cryptococcus neoformans, ATCC34664, RPMI 1640 with MOPS, read-out: Cn01 MIC50
# A. fumigatus ATCC 46645 = assay type: cell-based; settings: end point 48 hours; for MIC50: Aspergillus fumigatus, ATCC46645, RPMI 1640 with MOPS, read-out: Afm01 MIC50
# [1] = system: F. proliferatum ATCC 10052; assay type: cell-based, Fusarium proliferatum; settings: end point 48 hours; for MIC50: Fusarium proliferatum, ATCC10052, RPMI 1640 with MOPS, read-out: Fp01 MIC50
# Experimental: as §1
# C. tropicalis ATCC 750 = assay type: cell-based; settings: end point 48 hours; for MIC50: Candida tropicalis, ATCC750, RPMI 1640 with MOPS, read-out: Ct01 MIC50
MIC50 (C. glabrata ATCC 90030),MIC50 (C. krusei ATCC 6258),MIC80 (C. albicans ATCC 24433),MIC50 (C. albicans ATCC 24433),MIC50 (A. niger ATCC 16404),MIC50 (C. neoformans ATCC 34664),MIC50 (A. fumigatus ATCC 46645),MIC50 [1],MIC50 (C. tropicalis ATCC 750),Cg01 MIC50 (C. glabrata ATCC 90030; RPMI 1640 with MOPS),Ck01 MIC50 (C. krusei ATCC 6258; RPMI 1640 with MOPS),Ca01 A: MIC80 (C. albicans ATCC 24433; RPMI 1640 with MOPS),Ca01 B: MIC50 (C. albicans ATCC 24433; RPMI 1640 with MOPS),An01 MIC50 (A. niger ATCC 16404; RPMI 1640 with MOPS),Cn01 MIC50 (C. neoformans ATCC 34664; RPMI 1640 with MOPS),Afm01 MIC50 (A. fumigatus ATCC 46645; RPMI 1640 with MOPS),Fp01 MIC50 ([1]; RPMI 1640 with MOPS),Ct01 MIC50 (C. tropicalis ATCC 750; RPMI 1640 with MOPS),Structure (SMILES)
2 µg/mL,> 8 µg/mL,0.25 µg/mL,0.25 µg/mL,> 8 µg/mL,2 µg/mL,> 8 µg/mL,> 8 µg/mL,1 µg/mL,,,,,,,,,,"OC(COc1ccc(C2=NNC(c3ccc(Cl)cc3Cl)C2)cc1)(Cn1cncn1)c1ccc(F)cc1F (stereo not drawn) [Compound 1E-1, 1-(4-(5-(2,4-dichlorophenyl)-4,5-dihydro-1H-pyrazol-3-yl)phenoxy)-2-(2,4-difluorophenyl)-3-(1H-1,2,4-triazol-1-yl)propan-2-ol]"
0.12 µg/mL,1 µg/mL,0.12 µg/mL,0.06 µg/mL,> 4 µg/mL,0.25 µg/mL,> 4 µg/mL,> 4 µg/mL,0.5 µg/mL,,,,,,,,,,"O=C(/C=C/c1ccc(Cl)cc1)c1ccc(OC[C@](O)(Cn2cncn2)c2ccc(F)cc2F)cc1 [R-(−)-1A-6, R-(−)-(E)-3-(4-chlorophenyl)-1-(4-(2-(2,4-difluorophenyl)-2-hydroxy-3-(1H-1,2,4-triazol-1-yl)propoxy)phenyl)prop-2-en-1-one]"
0.06 µg/mL,2 µg/mL,0.12 µg/mL,0.06 µg/mL,2 µg/mL,0.5 µg/mL,> 4 µg/mL,> 4 µg/mL,0.25 µg/mL,,,,,,,,,,COc1ccc(/C=C/C(=O)c2ccc(OC[C@](O)(Cn3cncn3)c3ccc(F)cc3F)cc2)cc1 [R-(−)-1A-2]

# The next lines start with the compound.
Structure (SMILES),MIC50 (C. glabrata ATCC 90030),MIC50 (C. krusei ATCC 6258),MIC80 (C. albicans ATCC 24433),MIC50 (C. albicans ATCC 24433),MIC50 (A. niger ATCC 16404),MIC50 (C. neoformans ATCC 34664),MIC50 (A. fumigatus ATCC 46645),MIC50 [1],MIC50 (C. tropicalis ATCC 750),Cg01 MIC50 (C. glabrata ATCC 90030; RPMI 1640 with MOPS),Ck01 MIC50 (C. krusei ATCC 6258; RPMI 1640 with MOPS),Ca01 A: MIC80 (C. albicans ATCC 24433; RPMI 1640 with MOPS),Ca01 B: MIC50 (C. albicans ATCC 24433; RPMI 1640 with MOPS),An01 MIC50 (A. niger ATCC 16404; RPMI 1640 with MOPS),Cn01 MIC50 (C. neoformans ATCC 34664; RPMI 1640 with MOPS),Afm01 MIC50 (A. fumigatus ATCC 46645; RPMI 1640 with MOPS),Fp01 MIC50 ([1]; RPMI 1640 with MOPS),Ct01 MIC50 (C. tropicalis ATCC 750; RPMI 1640 with MOPS)
O=C(/C=C/c1c2ccccc2cc2ccccc12)c1ccc(OCC(O)(Cn2cncn2)c2ccc(F)cc2F)cc1 (stereo not drawn) [Compound 1A-15],2 µg/mL,> 2 µg/mL,> 2 µg/mL,> 2 µg/mL,> 2 µg/mL,2 µg/mL,> 2 µg/mL,> 2 µg/mL,> 2 µg/mL,,,,,,,,,
"O=C(/C=C/c1ccc(Cl)cc1Cl)c1ccc(OCC(O)(Cn2cncn2)c2ccc(F)cc2F)cc1 (stereo not drawn) [Compound 1A-7, (E)-3-(2,4-dichlorophenyl)-1-(4-(2-(2,4-difluorophenyl)-2-hydroxy-3-(1H-1,2,4-triazol-1-yl)propoxy)phenyl)prop-2-en-1-one]",0.5 µg/mL,2 µg/mL,0.25 µg/mL,0.25 µg/mL,> 4 µg/mL,2 µg/mL,> 4 µg/mL,> 4 µg/mL,1 µg/mL,,,,,,,,,
COc1cc(/C=C/C(=O)c2ccc(OCC(O)(Cn3cncn3)c3ccc(F)cc3F)cc2)cc(OC)c1 (stereo not drawn) [Compound 1A-4],2 µg/mL,> 4 µg/mL,1 µg/mL,0.25 µg/mL,> 4 µg/mL,2 µg/mL,> 4 µg/mL,> 4 µg/mL,2 µg/mL,,,,,,,,,
CCCCCCCCCCCCCCC(=O)/C=C/c1ccc(OCC(O)(Cn2cncn2)c2ccc(F)cc2F)cc1 (stereo not drawn) [Compound 1A-27],,,,,,,,,,>1 µg/mL,>1 µg/mL,>1 µg/mL,>1 µg/mL,>1 µg/mL,>1 µg/mL,>1 µg/mL,>1 µg/mL,>1 µg/mL
CC(=O)/C=C/c1ccc(OCC(O)(Cn2cncn2)c2ccc(F)cc2F)cc1 (stereo not drawn) [Compound 1A-25],0.12 µg/mL,8 µg/mL,0.25 µg/mL,0.12 µg/mL,8 µg/mL,4 µg/mL,8 µg/mL,> 128 µg/mL,2 µg/mL,,,,,,,,,
"OC(COc1ccc(-c2cc(-c3ccc(Cl)cc3Cl)[nH]n2)cc1)(Cn1cncn1)c1ccc(F)cc1F (stereo not drawn) [Compound 1D-1, 1-(4-(5-(2,4-dichlorophenyl)-1H-pyrazol-3-yl)phenoxy)-2-(2,4-difluorophenyl)-3-(1H-1,2,4-triazol-1-yl)propan-2-ol]",1 µg/mL,2 µg/mL,0.5 µg/mL,0.5 µg/mL,> 4 µg/mL,1 µg/mL,> 4 µg/mL,> 4 µg/mL,0.5 µg/mL,,,,,,,,,
